The values below come from ChEMBL document CHEMBL1201862, “PubChem BioAssay data set” (2004).

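Grown in 96-well plates, cells were treated for 48 hours with each compound at five concentrations. Insufficient inhibition: endpoint recorded as highest concentration tested. GI50 = concentration required for 50% inhibition of growth.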 Activity calls are given as the source filed them. Rule as the data show it: active = GI50 up to about 1.1 µM and inactive = higher. Where only a bound is given, the exact number is not on record here.

Test systems include CAKI-1; SNB-75; LOX IMVI; HCT-15; SK-MEL-28; ACHN; RXF 393; SK-MEL-5; HCT-116; SNB-19; SF-268; OVCAR-8; IGROV-1; NCI-H23; T47D; SW-620; MDA-N; KM12; MOLT-4; UO-31.
What all share (assay): growth of human tumour cells (NCI), 48 h

Regarding `Cc1ccc(O)c(C(c2ccc(C(c3cc(C)ccc3O)c3cc(C)ccc3O)cc2)c2cc(C)ccc2O)c1`, the GI50 in the assay on CAKI-1 was 1.56 µM (inactive); in the assay with SNB-75, 1.89 µM (inactive); with LOX IMVI it was 1.69 µM (inactive); in the assay with HCT-15, 1.8 µM; in the assay with SK-MEL-28, 1.81 µM (inactive); in the assay with ACHN, 1.78 µM (inactive). Besides, the GI50 with RXF 393 was 1.79 µM (inactive); with SK-MEL-5 it was 1.77 µM (inactive); with HCT-116, 1.67 µM (inactive); with SNB-19, 1.52 µM (inactive); with SF-268, 1.62 µM (inactive); in the assay with OVCAR-8, 1.81 µM (inactive). The GI50 in the assay on IGROV-1 was 1.67 µM (inactive); in the assay on NCI-H23 it was 1.79 µM (inactive); in the assay with T47D, 1.75 µM (inactive); in the assay with SW-620 it was 1.82 µM (inactive); with MDA-N, 1.52 µM (inactive); with KM12, 1.67 µM (inactive). Moreover, the GI50 is 2.9 µM (inactive) in the assay on MOLT-4 and 1.85 µM (inactive) in the assay on UO-31.
On to `NC1=CC(C(=O)c2ccncc2)c2nc3ccccc3nc21` (stereo not given), for which the GI50 was 42.2 µM (inactive) with CAKI-1; 52 µM (inactive) in the assay with SNB-75; 22.7 µM (inactive) in the assay on LOX IMVI; 92.7 µM in the assay with HCT-15; > 100 µM (inactive) in the assay on SK-MEL-28; 59.2 µM (inactive) in the assay with ACHN. Also, the GI50 in the assay with RXF 393 is > 100 µM (inactive); in the assay on SK-MEL-5, > 100 µM (inactive); in the assay with HCT-116, > 100 µM (inactive); in the assay on SNB-19, > 100 µM (inactive); in the assay on SF-268, > 100 µM (inactive); in the assay on OVCAR-8, 63.5 µM (inactive). Also, the GI50 in the assay on IGROV-1 was 46.6 µM (inactive); in the assay on NCI-H23, 63 µM (inactive); with T47D it was > 100 µM (inactive); in the assay on SW-620, > 100 µM (inactive); in the assay on MDA-N it was > 100 µM (inactive); with KM12 it was > 100 µM (inactive). In addition, the GI50 with MOLT-4 and with UO-31 was > 100 µM (inactive) in each case.
Regarding `CC(C)OC(=O)c1ccc(CCC2=CC(=O)C(Br)=CC2=O)cc1`, the GI50 was 20.6 µM (inactive) in the assay with CAKI-1; 16.1 µM (inactive) with SNB-75; 15.9 µM (inactive) in the assay on LOX IMVI; 15.4 µM in the assay on HCT-15; 18.2 µM (inactive) in the assay with SK-MEL-28; 14.5 µM (inactive) with ACHN. For the same compound, the GI50 was 17.1 µM (inactive) in the assay on RXF 393; 12.8 µM (inactive) in the assay with SK-MEL-5; 16.7 µM (inactive) with HCT-116; 15.3 µM (inactive) in the assay on SNB-19; 16 µM (inactive) in the assay with SF-268; 15.3 µM (inactive) in the assay on OVCAR-8. In addition, the GI50 is 14.4 µM (inactive) with IGROV-1; 13.2 µM (inactive) with NCI-H23; 19.6 µM (inactive) in the assay with T47D; 15.5 µM (inactive) in the assay on SW-620; 16.4 µM (inactive) with MDA-N; 13 µM (inactive) in the assay with KM12. The GI50 was 3.09 µM (inactive) in the assay with MOLT-4 and 13.8 µM (inactive) with UO-31.
Take `Cc1cnc2[nH]c(-c3cccc(F)c3)cc(=O)c2c1`: the GI50 is 0.0317 µM (active) in the assay on CAKI-1; 0.0171 µM (active) with SNB-75; 0.0668 µM (active) in the assay with LOX IMVI; 0.0267 µM in the assay with HCT-15; 0.0352 µM (active) in the assay with SK-MEL-28; 0.0664 µM (active) in the assay on ACHN. Also, the GI50 in the assay with RXF 393 was 0.0418 µM (active); in the assay with SK-MEL-5, 0.0329 µM (active); with HCT-116, 0.034 µM (active); in the assay on SNB-19 it was 0.0546 µM (active); in the assay on SF-268 it was 0.0705 µM (active); in the assay on OVCAR-8, 0.0582 µM (active). In addition, the GI50 in the assay with IGROV-1 was 0.161 µM (active); with NCI-H23 it was 0.151 µM (active); in the assay on T47D, 15.6 µM (inactive); with SW-620, 0.0252 µM (active); with MDA-N it was 0.0112 µM (active); in the assay with KM12, 0.0327 µM (active). Further, the results for the GI50 in the assay on MOLT-4 and in the assay with UO-31 were 0.0531 µM (active) and 0.0724 µM (active), respectively.
